Patent publication US12358960B2, “Selective targeting of ubiquitin- and ubiquitin-like E1-activating enzymes by structurally-stabilized peptides” (Dana-Farber Cancer Institute, Inc., priority 2019, dated 2025)
Entries after “also recorded” stand apart in the source; their conditions may differ. Bridge positions count the residues as written; N and C are the ends. Square brackets hold non-standard residues; d marks the D form. Peptide text beside a SMILES is read from it. R8 = C=CCCCCCC[C@@](C)(N)C(=O)O; S5 = C=CCCC[C@](C)(N)C(=O)O; Nle = CCCC[C@H](N)C(=O)O

Columns and labels:
UBA1 = target: T1, UBA1 (Homo sapiens, UniProt P22314); assay: Hydrogen-deuterium exchange mass spectrometry with E1; format: binding; details: 10 s labeling
T1 sequence (P22314 1-1058): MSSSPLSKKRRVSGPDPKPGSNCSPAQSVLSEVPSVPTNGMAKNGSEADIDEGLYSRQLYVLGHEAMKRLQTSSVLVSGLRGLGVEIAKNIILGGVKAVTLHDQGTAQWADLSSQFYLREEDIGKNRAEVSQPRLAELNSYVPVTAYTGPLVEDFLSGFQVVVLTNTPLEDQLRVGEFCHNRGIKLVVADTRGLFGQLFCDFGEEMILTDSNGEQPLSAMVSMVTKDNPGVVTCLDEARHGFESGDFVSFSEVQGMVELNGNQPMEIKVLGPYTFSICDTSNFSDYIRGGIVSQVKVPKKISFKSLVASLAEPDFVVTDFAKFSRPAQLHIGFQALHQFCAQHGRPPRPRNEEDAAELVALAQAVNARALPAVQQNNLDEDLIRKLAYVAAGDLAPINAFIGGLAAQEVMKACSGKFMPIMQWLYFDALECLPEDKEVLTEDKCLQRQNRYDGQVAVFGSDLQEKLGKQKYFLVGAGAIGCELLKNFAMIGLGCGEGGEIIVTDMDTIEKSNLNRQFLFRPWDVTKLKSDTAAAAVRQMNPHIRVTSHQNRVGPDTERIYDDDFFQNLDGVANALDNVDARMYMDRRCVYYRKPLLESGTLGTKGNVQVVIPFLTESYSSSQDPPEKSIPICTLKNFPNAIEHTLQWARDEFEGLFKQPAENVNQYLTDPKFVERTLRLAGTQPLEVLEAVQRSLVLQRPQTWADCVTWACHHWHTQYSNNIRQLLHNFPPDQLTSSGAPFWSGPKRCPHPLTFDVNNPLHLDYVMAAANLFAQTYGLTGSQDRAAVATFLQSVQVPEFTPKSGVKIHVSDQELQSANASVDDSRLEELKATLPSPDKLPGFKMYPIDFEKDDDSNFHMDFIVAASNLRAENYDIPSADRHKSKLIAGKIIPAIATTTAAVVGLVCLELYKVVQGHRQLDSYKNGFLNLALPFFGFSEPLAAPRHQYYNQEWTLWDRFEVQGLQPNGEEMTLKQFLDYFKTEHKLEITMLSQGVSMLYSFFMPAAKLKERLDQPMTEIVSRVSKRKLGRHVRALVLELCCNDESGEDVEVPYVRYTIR
Method: HXMS analysis: Hydrogen-deuterium exchange mass spectrometry (HXMS) experiments were performed as described (Barclay, L. A. et al. Inhibition of Pro-apoptotic BAX by a noncanonical interaction mechanism. Molecular Cell 57, 873-886, doi: 10.1016/j.molcel.2015.01.014 (2015)). SAH-UBE2A was incubated alone or with the indicated molar ratio of recombinant human UBA1, UBE2D2, or vehicle control for ten minutes on ice, in buffer containing 50 mM NaCl, 5 mM MgCl2, 500 nM ubiquitin, 20 mM ATP, 5 mM DTT, 20 mM HEPES, pH 7.4. Deuterium labeling was initiated with an 18-fold dilution into D20 buffer (20 mM HEPES, 50 mM NaCl, pD 8). After 10 s of labeling, the labeling reaction was quenched with the addition of an equal volume of quenching buffer (0.8 M guanidinium chloride, 0.8% [v/v] formic acid). Samples were then injected and peptides were trapped intact and desalted on a VanGuard Pre-Column trap (2.1 mm×5 mm, ACQUITY UPLC BEH C18, 1.7 μm) for 3 min, eluted from the trap using a 5%-35% gradient of acetonitrile over 6 minutes at a flow rate of 65 μL/min, and then separated using an ACQUITY UPLC HSS T3, 1.8 μm, 1.0 mm×50 mm column on a Waters nanoACQUITY LC. The Waters Synapt G2Si mass spectrometer was operated in ion mobility mode and data analyzed. All mass spectra were processed using DynamX 3.0 (Waters Corporation). […]

proteinase K = proteinase K (Parengyodontium album, UniProt P06873); assay: in vitro; details: proteinase K (isolated protease) in Tris HCl buffer, pH 7.4
proteinase K, sequence (P06873 106-384): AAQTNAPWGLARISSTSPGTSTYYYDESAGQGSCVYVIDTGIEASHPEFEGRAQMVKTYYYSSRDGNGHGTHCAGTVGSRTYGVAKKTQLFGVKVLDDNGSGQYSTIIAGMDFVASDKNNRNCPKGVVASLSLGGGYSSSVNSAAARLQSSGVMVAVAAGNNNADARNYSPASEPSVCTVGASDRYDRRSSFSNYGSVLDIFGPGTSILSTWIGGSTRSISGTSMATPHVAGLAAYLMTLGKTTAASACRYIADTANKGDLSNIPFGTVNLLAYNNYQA
Method: Peptide Proteolysis Assay: In vitro proteolytic degradation was measured by LC/MS (Agilent 1200) using the following parameters: 20 μl injection, 0.6 mL flow rate, 20-min run time consisting of a gradient of water (0.1% formic acid) to 20%-80% acetonitrile (0.75% formic acid) over 15-min, 4-min wash to revert to starting gradient conditions, and 0.5-min post-time. The MSD set to scan mode with one channel at (M+2H)/2, ±1 mass units, one channel at (M+3H)/3, ±1 mass units, and the other at (M+4H)/4, ±1 mass units. Integration of each MSD signal yielded areas under the curve of >108 counts. Reaction samples were composed of 5 μl peptide in DMSO (1 mM stock) and 195 μl buffer consisting of 50 mM Tris HCl, pH 7.4. Upon injection of the zero time sample, 6 μl of 20 ng/μL proteinase K (New England Biolabs) was added, and the amount of intact peptide quantitated by serial injection over time. A plot of MSD area versus time yielded an exponential decay curve, and half-lives were determined by nonlinear regression analysis using Prism software (GraphPad).

[1] = test system: HeLa S100 lysate fraction, polyubiquitin chains; assay: Cellular lysate enzyme inhibition (ubiquitination) assay; format: biochemical; details: excess ubiquitin, ATP regeneration solution, vs vehicle
Method: Cellular Lysate Enzyme Inhibition Assays: Cellular lysate assays were performed with 1 mg/mL final concentration HeLa S100 lysate fraction and the indicated concentration of peptide or DMSO vehicle control in an assay buffer containing 1×ATP regeneration solution, 20 mM HEPES, 50 mM NaCl, 5 mM MgCl2, 2 mM DTT, 100 nM ubiquitin aldehyde, and a protease-phosphatase inhibitor cocktail at pH 7.4. Reactions were initiated by addition of ubiquitin to a final concentration of 100 μM and allowed to proceed for 30 minutes at room temperature, followed by quenching with non-reducing LDS loading buffer. Proteins were separated by SDS-PAGE gel electrophoresis and detected by western blot against polyubiquitin (Cell Signaling Technology CST3936).

[2] = target: T2, deubiquitinase enzyme USP7 (Homo sapiens, UniProt Q93009); assay: Deubiquitination of p53 by USP7 in the reconstitution assay; format: biochemical; details: peptide 30 μM
T2 construct: purchased BostonBiochem E-519
T2 sequence (Q93009 whole entry): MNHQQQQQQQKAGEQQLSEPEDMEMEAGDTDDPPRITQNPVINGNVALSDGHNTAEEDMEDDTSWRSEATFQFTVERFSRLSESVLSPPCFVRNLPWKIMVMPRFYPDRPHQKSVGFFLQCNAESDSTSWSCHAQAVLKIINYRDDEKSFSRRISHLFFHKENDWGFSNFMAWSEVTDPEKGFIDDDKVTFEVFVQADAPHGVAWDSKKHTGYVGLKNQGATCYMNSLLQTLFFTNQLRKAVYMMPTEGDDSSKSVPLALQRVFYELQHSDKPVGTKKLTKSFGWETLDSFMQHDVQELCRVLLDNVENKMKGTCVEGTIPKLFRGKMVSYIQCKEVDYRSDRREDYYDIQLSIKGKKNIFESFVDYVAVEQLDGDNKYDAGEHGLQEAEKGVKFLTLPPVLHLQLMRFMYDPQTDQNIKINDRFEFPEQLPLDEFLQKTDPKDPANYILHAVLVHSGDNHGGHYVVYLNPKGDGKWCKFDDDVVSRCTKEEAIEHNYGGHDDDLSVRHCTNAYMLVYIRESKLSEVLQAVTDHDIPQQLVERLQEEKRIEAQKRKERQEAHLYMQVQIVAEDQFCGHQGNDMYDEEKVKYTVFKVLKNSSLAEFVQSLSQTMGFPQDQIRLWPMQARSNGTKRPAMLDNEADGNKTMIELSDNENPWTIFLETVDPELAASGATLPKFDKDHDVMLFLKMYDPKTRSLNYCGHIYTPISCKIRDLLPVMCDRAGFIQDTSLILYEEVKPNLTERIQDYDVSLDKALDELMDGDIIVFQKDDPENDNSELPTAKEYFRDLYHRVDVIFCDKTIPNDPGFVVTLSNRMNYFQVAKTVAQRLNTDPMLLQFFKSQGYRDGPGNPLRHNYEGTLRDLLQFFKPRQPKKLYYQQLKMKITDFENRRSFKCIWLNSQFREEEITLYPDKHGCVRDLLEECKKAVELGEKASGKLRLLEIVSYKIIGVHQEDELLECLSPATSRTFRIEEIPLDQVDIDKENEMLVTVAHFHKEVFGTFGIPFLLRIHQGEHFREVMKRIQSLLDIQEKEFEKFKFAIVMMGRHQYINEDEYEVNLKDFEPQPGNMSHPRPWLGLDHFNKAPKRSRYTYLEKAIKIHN
Method: In Vitro Ubiquitin Pathway Reconstitution Assay: Reactions containing recombinant His-p53 (0.1 μM), in the presence or absence of peptide (30 μM), UBA1 (0.1 μM), UBE2D (1 μM), HDM2 (1 μM), ubiquitin (1 μM) and ATP (10 mM) (all Boston Biochem K-200B), preactivated Ub-UBEA2 (3 μM) (Boston Biochem E2-802), and USP7 (1 μM) (BostonBiochem E-519), as indicated, were mixed and incubated for 2 h at 37° C. in a final volume of […] followed by denaturation by boiling in SDS-containing loading dye for 10 min at 90° C. Samples were resolved by […] gel electrophoresis and transferred to nitrocellulose membrane. Membranes were blocked with 3% milk for 1 h, incubated overnight in PBS containing 3% BSA and mouse p53 antibody (Boston Biochem K-200B) at a 1:1000 dilution, washed in PBS containing 0.1% Tween-20, and then incubated in PBS containing 3% BSA and anti-mouse secondary antibody (BioRad AAC10P) at a 1:5000 dilution for 1 hour at room temperature. Membranes were again washed in PBS containing 0.1% Tween-20 and imaged using Amersham ECL Prime (GE Life Sciences) on an Amersham Imager 680 (GE Life Sciences).

CCCC[C@H](NC(C)=O)C(=O)N[C@@H](CO)C(=O)N[C@H](C(=O)N1CCC[C@H]1C(=O)N[C@]1(C)CCCCCCC=CCCC[C@@](C)(C(=O)N[C@@H](Cc2ccccc2)C(=O)N[C@@H](CCCCN)C(=O)N[C@@H](CCCNC(=N)N)C(=O)N[C@@H](CC(C)C)C(=O)N[C@@H](CCC(N)=O)C(N)=O)NC(=O)[C@H](CCCNC(=N)N)NC(=O)[C@H](CCCC)NC(=O)[C@H](CC(C)C)NC(=O)[C@H](CCCNC(=N)N)NC(=O)[C@H](CCCNC(=N)N)NC(=O)[C@H](CCCNC(=N)N)NC1=O)[C@@H](C)O [SAH-UBE2A-11, BSTPX1RRRLBRX2FKRLQ] (Ac-[Nle]STP[R8]RRRL[Nle]R[S5]FKRLQ-NH2; staple 5-12)
protection of peptide from deuterium uptake by UBA1 (UBA1): dose-dependently protected SAH-UBE2A from deuterium uptake; also recorded: dose-responsively binding to E1
half-life at 25 µM (proteinase K): > 6 h
formation of polyubiquitin chains in HeLa cell cytoplasmic fraction [1]: dose-dependently inhibited formation of polyubiquitin chains
activity of deubiquitinase USP7 against p53 [2]: no effect on the activity of the deubiquitinase enzyme USP7 against p53
activity of deubiquitinase USP7 against p53 ([2]; listed as SAH-UBE2A): regardless of SAH-UBE2A presence
